From patent EP0390673A1, “5-Acyl-benzoxazolinone derivatives, processes for their preparation and pharmaceutical compositions containing them” (ADIR ET COMPAGNIE, priority 1989, dated 1990)

Test system: souris
Assay: Analgesic activity, Siegmund test (phenyl-p-benzoquinone-induced stretching)
Type: in vivo
Conditions: Mus musculus; oral, 1 hour before i.p. phényl-p-benzoquinone 0,02 %; stretches counted between minutes 5 and 10; read-out: ED₅₀, dose entraînant une activité de 50%
From the text: L'activité sur la douleur a été recherchée chez la souris (23-25 g) selon un protocole dérivé de la technique décrite par SIEGMUND (SIEGMUND E.A., R.A. CADMUS & GOLU, J. Pharm. Exp. Ther. 119, 1874, 1954). Les souris, réparties par randomisation en lots de 12 animaux, ont reçu le traitement par voie orale (excipient pour les témoins) 1 heure avant l'injection intra-péritonéale d'une solution hydroalcoolique de phényl-p-benzoquinone (Sigma) à 0,02 %. Les étirements sont dénombrés entre la 5ème et 10ème minute après l'injection.
Le pourcentage d'activité obtenu a été évalué pour chaque dose (% de diminution du nombre d'étirements chez les traités par rapport aux témoins). Une ED₅₀, dose entraînant une activité de 50%, a été déterminée pour chaque produit.

O=C(c1ccccc1)c1ccc2oc(=O)[nH]c2c1 [Exemple 1, BENZOYL-5 BENZOXAZOLINONE]
ED50: ~5 mg/kg
